Measured values published in patent US7846697B2, “Method of producing a low molecular weight organic compound in a cell” (BLMaps, priority 2003, dated 2010).

Assays:
[1] = Halkier and Møller, 1989; cited from earlier work

| Structure (SMILES) | stability in aqueous solutions [1] | toxicity to microbial organisms compared with the aglycon vanillin (microbial organisms) |
| --- | --- | --- |
| N#CC(O)c1ccc(O)cc1 (centres unmarked) [p-hydroxymandelonitrile] | highly unstable |  |
| COc1cc(C=O)ccc1O[C@@H]1O[C@H](CO)[C@@H](O)[C@H](O)[C@H]1O [vanillin glucoside, vanillin-β-D-glucoside] |  | much less toxic |
